This data set in a line: method code SF-GLC, from DOI: 10.1016/s0045-6535(99)00157-5.
For the compound `ClCC1(CCl)C2C(Cl)C(Cl)C1(CCl)C(Cl)(Cl)C2Cl` (stereo not drawn), the logP was 5.74.
Then `CC1(CCl)C2CC(Cl)(Cl)C1(C(Cl)Cl)CC2Cl` (stereo not drawn), with 5.49; and `ClCC12CCC(C(Cl)C1(Cl)Cl)C2(C(Cl)Cl)C(Cl)Cl` (stereo not drawn), with 5.49.
Compound `ClCC1(CCl)C2C(Cl)C(Cl)(Cl)C1(C(Cl)Cl)CC2(Cl)Cl` (stereo not drawn) yielded a logP of 6.26.
Then `ClCC1(C(Cl)Cl)C2CC(Cl)(Cl)C1(C(Cl)Cl)CC2(Cl)Cl` (stereo not drawn), with 5.96; and `ClCC1(C(Cl)Cl)C(=C(Cl)Cl)C2CC1C(Cl)(Cl)C2Cl` (stereo not drawn), with 5.49.
Then `ClC=C1C2CC(C1(CCl)CCl)C(Cl)(Cl)C2Cl` (stereo not drawn), with 5.2; and `ClCC1(CCl)[C@H]2CC(Cl)(Cl)[C@]1(CCl)[C@@H](Cl)[C@@H]2Cl`, with 5.23.
Then `ClCC1(CCl)C2[C@@H](Cl)[C@H](Cl)C1(C(Cl)Cl)[C@@H](Cl)[C@@H]2Cl`, with 5.57.
For the compound `ClCC1(C(Cl)Cl)C2C(Cl)CC1(C(Cl)Cl)C(Cl)C2Cl` (stereo not drawn), the logP was 5.19.
Then `ClCC1(C(Cl)Cl)C2CC(Cl)C1(C(Cl)Cl)CC2(Cl)Cl` (stereo not drawn), with 5.75; and `ClC[C@@]1(C(Cl)Cl)C2[C@@H](Cl)[C@H](Cl)C1(C(Cl)Cl)[C@@H](Cl)[C@@H]2Cl`, with 5.89.
For the compound `ClC[C@@]1(C(Cl)Cl)[C@@H]2CC(Cl)(Cl)[C@@]1(C(Cl)Cl)[C@H](Cl)C2(Cl)Cl`, the logP worked out at 6.64.
On to `ClCC1(C(Cl)Cl)C2CC(Cl)(Cl)C1(C(Cl)Cl)C(Cl)C2Cl` (stereo not drawn), for which the logP came to 5.8.
Then `ClC=C1C2C(Cl)C(Cl)C(C2Cl)C1(CCl)CCl` (stereo not drawn), with 5.35; and `CC1(C(Cl)Cl)C2C(Cl)C(Cl)C1(C(Cl)Cl)C(Cl)C2Cl` (stereo not drawn), with 5.52; and `C[C@]1(C(Cl)Cl)[C@H]2CC(Cl)(Cl)[C@]1(C(Cl)Cl)CC2(Cl)Cl`, with 5.9.
The compound `ClCC1(CCl)C(=C(Cl)Cl)C2CC1C(Cl)(Cl)C2Cl` (stereo not drawn) registered a logP of 5.44.

Usually logP stands for a log measure of how a compound divides between an organic and an aqueous phase. A high value points to a more lipophilic compound.

The record behind these values is the SangsterLogP compilation.
